Measured values from patent publication US20060128015A1, “Small hepatocyte-rich colonies, process for preparing the colonies, process for maturating the colonies into liver tissue and method of estimating effects of drug by using matured small hepatocyte-rich colonies” (priority 2001, published 2006).
Like-named read-outs stand apart in the source and are kept apart here.

Tests used:
[1] = tested on: CYP2B1; assay: CYP2B1 induction capacity in matured small hepatocyte-rich colonies (Western blot); assay type: cell-based, rat; settings: 24 hours after addition, matured hepatocytes = 100%, 0 mM gave 30.8
[2] = tested on: CYP3A2; assay: CYP3A2 induction capacity in matured small hepatocyte-rich colonies (Western blot); assay type: cell-based, rat; settings: 24 hours, matured hepatocytes = 100%, control (0.5% ethanol) 94.9
Procedure: (§1) About 200 to 250/cm^2 of the small hepatocyte colonies prepared in Example 2 were placed on a culture dish (diameter: 60 mm).
(§2) After the culture in a culture medium (1) (DMEM, 10% FBS, 10 mM nicotinamide, 1 mM ascorbic acid 2-phosphate, 10 ng/ml EGF, 10^−7 M dexamethasone, 0.5 μg/ml insulin, penicillin and streptomycin) for 12 to 24 hours, the culture medium was exchanged with a serum-free culture medium (2) (DMEM, 10 mM nicotinamide, 1 mM ascorbic acid 2-phosphate, 10 ng/ml EGF, 10^−7 M dexamethasone, 0.5 μg/ml insulin, penicillin, streptomycin and 1% DMSO). After the culture for additional 10 days while the culture medium was exchanged every other day, Matrigel diluted to 500 μg/ml with the culture medium was placed on the cells. 48 hours after the addition of Matrigel, the culture medium was exchanged, and the culture was continued by using DMSO-free culture medium (2) for 4 days. 6 days after the addition of Matrigel, drugs shown in the following Tables 3 to 6 were added in a concentration shown in the same Tables thereto, respectively. 24 hours after the addition of the drug, the cells were recovered.
(§3) After the proteins were separated with 10% SDS-PAGE, the intended protein was stained on the membrane by Western blot. The intensity of the band on the blot was digitized by a densitometer.
(§4) The primary antibodies used were goat anti-CYP2B 1 antibody (diluted to 1/300), goat anti-CYP3A2 antibody (diluted to 1/300), goat anti-CYP2E1 antibody (diluted to 1/1000) and goat anti-CYP4A1 antibody (diluted to 1/1000) (all bought from Daiichi Kagaku Yakuhin). The secondary antibodies were HRP-conjugated anti-goat/sheep Ig (diluted to 1/5000) bought from DAKO. The chromogenic substrate was Super Signal West Dura (chemiluminescence) purchased from Pierce.
(§5) Tables 3 to 6 show the relative activity of each enzyme as the induction capacity of each drug for the enzyme, wherein the activity of each enzyme in matured hepatocytes is defined as 100%. Pregnenolone was used in the form of a solution containing 0.5% ethanol, and clofibrate was used in the form of a solution containing 0.5% DMSO.

[3] = tested on: CYP4A1; assay: CYP4A1 induction capacity in matured small hepatocyte-rich colonies (Western blot); assay type: cell-based, rat; settings: 24 hours, matured hepatocytes = 100%, control (0.5% DMSO) 74.1
[4] = tested on: CYP2E1; settings: 24 hours after addition, matured hepatocytes = 100%, 0 mM gave 74.1
Procedure: as §1, §2, §3, §4, §5

In the case of `CCC1(c2ccccc2)C(=O)NC(=O)NC1=O` [Phenobarbital], the “CYP2B1 induction capacity (%)” value ([1]; 0.75 mM) is reported as 37.4%, the “CYP2B1 induction capacity (%)” value ([1]; 1.5 mM) is reported as 47.9% and the “CYP2B1 induction capacity (%)” value ([1]; 3.0 mM) is reported as 46.9%. For the same compound, the “CYP2B1 induction capacity (%)” value ([1]; 4.5 mM) was 55.0%.
For `CC(=O)[C@H]1CC[C@H]2[C@@H]3CC=C4C[C@@H](O)CC[C@]4(C)[C@H]3CC[C@]12C` [Pregnenolone], the “CYP3A2 induction capacity (%)” value ([2]; 0.5 × 10^−3 mM in 0.5% ethanol) was 115.5%, the “CYP3A2 induction capacity (%)” value ([2]; 1.0 × 10^−3 mM in 0.5% ethanol) was 141.0% and the “CYP3A2 induction capacity (%)” value ([2]; 2.0 × 10^−3 mM in 0.5% ethanol) was 148.1%. The “CYP3A2 induction capacity (%)” value ([2]; 5.0 × 10^−3 mM in 0.5% ethanol) was 153.2%.
In the case of `CCOC(=O)C(C)(C)Oc1ccc(Cl)cc1` [Clofibrate], the “CYP4A1 induction capacity (%)” value ([3]; 0.1 mM in 0.5% DMSO) is reported as 76.5%, the “CYP4A1 induction capacity (%)” value ([3]; 0.25 mM in 0.5% DMSO) is reported as 82.4% and the “CYP4A1 induction capacity (%)” value ([3]; 0.5 mM in 0.5% DMSO) is reported as 98.8%. The “CYP4A1 induction capacity (%)” value ([3]; 0.75 mM in 0.5% DMSO) was 86.4%.
`CCO` [Ethanol] was tested, and the “CYP2E1 induction capacity (%)” value ([4]; 250 mM) was 76.5%, the “CYP2E1 induction capacity (%)” value ([4]; 500 mM) was 82.4% and the “CYP2E1 induction capacity (%)” value ([4]; 750 mM) was 98.8%. The “CYP2E1 induction capacity (%)” value ([4]; 1000 mM) was 86.4%.
